These results are taken from publication PMC9866314 (Viruses, 2022).

Data set [1] can be described thus: in vitro. The note with it: hamster.
In data set [2] the test system is FMDV serotype A (NP05). Description: microbe, parasite or virus in culture. Format: cell-based. The note with it: Foot-and-mouth disease virus; for EC50: BHK-21, read-out: Antiviral Activity EC50; for EC90: BHK-21, read-out: Antiviral Activity EC90.
Data set [3] relates to RD114 glycoprotein (RD114pp) of endogenous feline retrovirus. The note with it: read-out: IC50 against RD114pp; cited from earlier work.

In turn, `CCOC(=O)/C=C/[C@H](C[C@@H]1CCNC1=O)NC(=O)[C@@H](CC(=O)[C@@H](NC(=O)c1cc(C)on1)C(C)C)Cc1ccc(F)cc1` [Rupintrivir, reference compound] yielded a CC50 in data set [1] above 100 µM. Moreover, in data set [2], the EC50 was determined as 2.02 ± 0.3 µM and the 90% effect concentration (EC90) came out at 12.1 ± 1.6 µM.
For `CO[C@@H]1C[C@@H](C[C@H]2CC[C@H](C)[C@H]([C@@H](C)C(=O)O)O2)O[C@]2(O[C@](C)([C@H]3CC[C@@](C)([C@@H]4O[C@@H]([C@H]5O[C@@](O)(CO)[C@H](C)C[C@@H]5C)C[C@@H]4C)O3)C[C@H]2C)[C@@H]1C` [NSC292567, Pandavir/Nigericin], the CC50 in data set [1] amounted to 49.9 ± 1.7 µM. Further, in data set [2], the EC50 stood at 0.42 ± 0.08 µM and the EC90 stood at 3.85 ± 0.34 µM.
The corresponding values for `CC1=CC(C)(C)Nc2ccc(Cc3ccc4c(c3)C(C)=CC(C)(C)N4)cc21` [NSC217697, 6,6′-methylene bis(2,2,4-trimethyl-1,2-dihydroquinoline)] are above 100 µM, 0.78 ± 0.1 µM and 9.52 ± 0.18 µM.
Molecule `O=C1CCCc2cc3c(cc21)CC1(C3)Cc2cc3c(cc2C1)C(=O)CCC3` [NSC670283, 2,2′-spirobi [3,6,7,8-tetrahydro-1H-cyclopenta[g]naphthalene]-5,5′-dione] showed a CC50 in data set [1] above 100 µM. The IC50 in data set [3] is 3 µM. In addition, in data set [2], the EC50 was determined as 3.38 ± 1.02 µM and the EC90 was 30.45 ± 0.25 µM.
In data set [1], `NC(=O)c1ncn([C@@H]2O[C@H](CO)[C@@H](O)[C@H]2O)n1` [Ribavirin, 1-β-d-ribofuranosyl-1,2,4-triazole-3-carboxamide, reference compound] came in with a CC50 above 100 µM. For the same molecule, in data set [2], the EC50 came to 42.89 ± 0.42 µM and the 90% effect concentration (EC90) is 393.6 ± 2.56 µM.

For orientation: EC50 means the midpoint of the concentration-response curve. What is called EC90 is the concentration needed for an effect of 90%. The term IC50 denotes the point on the concentration scale where inhibition reaches its midpoint.
